From article PMC10253401, “BS148 Reduces the Aggressiveness of Metastatic Melanoma via Sigma-2 Receptor Targeting” (International Journal of Molecular Sciences, 2023)

Molecular target: T1, sigma-2 receptor (S2R) (Homo sapiens, UniProt Q5BJF2)
T1 construct: gene TMEM97
Assay: radioligand displacement ([3H]-ditolylguanidine, […], with […] (+)pentazocine to mask S1R)
Assay type: binding

T1 sequence (Q5BJF2 whole entry): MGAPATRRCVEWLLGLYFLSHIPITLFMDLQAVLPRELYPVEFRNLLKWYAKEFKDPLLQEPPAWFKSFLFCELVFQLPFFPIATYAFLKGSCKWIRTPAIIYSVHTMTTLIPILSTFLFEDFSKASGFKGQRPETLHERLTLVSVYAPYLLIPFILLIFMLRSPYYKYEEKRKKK

O=C(CCCCCNc1ccc([N+](=O)[O-])c2nonc12)Oc1ccc(CC2CCN(CC3CSC4(CCCCC4)S3)CC2)cc1 (stereo not shown) [BS148-fluo, 4-((1-((1,4-dithiaspiro[4.5]decane-2-yl)methyl)piperidin-4-yl)methyl)phenyl-6-((7-nitrobenzo[c][1,2,5]oxadiazol-4-yl)amino)hexanoate]
pKi S2R ^a ± SD: 7.00 ± 0.11 pKi
